# Data from patent US11026910B2, “α- and γ-truxillic acid derivatives and pharmaceutical compositions thereof” (The Research Foundation for The State University of New York, priority 2012, dated 2021).
# How the values were obtained:
# FABP5 [1] = biological target: T1, FABP5 (Homo sapiens, UniProt Q01469); assay: High throughput fluorescence displacement assay with NBD-stearate; type: binding; conditions: stated in words only
# T1 construct: made in house
# Procedure: FABP5 (30 μg), NBD-stearate (1 μM), and a competitor test compound were incubated in 30 mM Tris-HCl, 100 mM NaCl buffer (pH 7.6). […] The initial assay was run with buffer (30 mM Tris-HCl buffer), negative controls (buffer and NBD-stearate), positive controls (buffer, NBD-stearate, FABP5), and experimental wells with a variable test compound added (arachidonic acid or one of the 48 test compounds) at 10 μM. […] The Kd of NBD-stearate for FABP5 had been determined previously through incubating FABP5 with increasing concentrations of NBD-stearate.
# male C57Bl6 mice [2] = assay: Carrageenan-induced paw edema and thermal hyperalgesia; type: in vivo; conditions: 20 mg/kg, i.p. (FIG. 16A)
# Procedure: (§1) We used male C57Bl6 mice (22-30 g, Taconic Farms) for all experiments. The animals were group housed at room temperature and kept on a 12:12 hour light:dark cycle with ad libitum access to water and food. The animals were habituated to the experimental room for one week before testing. All experiments were approved by the Stony Brook University Institutional Animal Care and Use Committee. The experimenter was blinded to the treatment conditions of each animal.
# Paw edema was induced by injecting 1% λ-carrageenan (20 μl, in sterile saline) into the plantar surface of the left hind paw and a control solution of saline into the right hind paw using a 27 gauge needle. Paw diameters were measured before carrageenan injection and 4 hours after injection using digital electronic calipers (Fisher) and expressed to the nearest ±0.01 mm. […] The cannabinoid receptor antagonists, rimonabant and SR144528 (3 mg/kg, i.p.), in ethanol:emulphor:saline (1:1:18), were injected 15 min before the FABP inhibitor. Edema is reported as the change in paw diameter at 4 hr over the baseline. Changes in paw diameter of saline-injected contralateral paws were negligible. Thermal hyperalgesia measured the latency to withdraw the paw from a focused beam of radiant heat applied to the plantar surface of the hind paw using a Hargreaves plantar apparatus (Ugo Basile) set at an intensity of 3.0. For each mouse, the average latencies consisted of three trials spaced at least 5 minutes apart. The mice were habituated to the test chamber for 30 min. The cutoff time was set at 30 sec.
# (§2) Behavioral data are presented as means±S.E.M. for the vehicle and inhibitor-treated groups, each consisting of at least 6 animals. Statistical significance between vehicle and inhibitor groups was determined using unpaired t-tests or one-way ANOVA followed by Dunnett's post hoc analysis. In all cases, differences of p<0.05 were considered significant.
# male C57Bl6 mice [3] = assay: Formalin test; type: in vivo
# Procedure: as §1
# Mice were habituated to the observation chamber (Plexiglas box, 25 cm×25 cm×25 cm) for 30 min prior to formalin injection. The mice subsequently received an injection of formalin (2.5% in saline, 20 μl) into the plantar surface of the right hind paw using a 27 gauge needle. The animals were immediately placed back into the observation, chamber and nocifensive behavior (time spent licking or biting the paw) was recorded for 60 min. The formalin test consists of two phases with the first phase (0-5 min) reflecting nociceptor activation and the second phase (15-45 min) reflecting an inflammatory pain response.
# as §2
# [4] = literature; cited from earlier work
# FABP4 = FABP4 (Homo sapiens, UniProt P15090); conditions: McDonnell 2006; read-out: Ki against FABP4 (1,8-ANS displacement); cited from earlier work
# FABP5 [5] = biological target: T1, FABP5; conditions: cited from earlier work
# FABP7 = FABP7 (Homo sapiens, UniProt O15540); conditions: natural substrate; read-out: Ki against FABP7; cited from earlier work
# male C57Bl6 mice [6] = conditions: literature SAR study (Chi 2005); cited from earlier work
# T1 sequence (Q01469 whole entry, species assumed): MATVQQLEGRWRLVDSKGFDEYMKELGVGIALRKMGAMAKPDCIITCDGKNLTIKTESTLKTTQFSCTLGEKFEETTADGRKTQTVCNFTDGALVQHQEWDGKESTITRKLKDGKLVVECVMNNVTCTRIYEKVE
# Sequence of FABP7 (O15540 whole entry, species assumed): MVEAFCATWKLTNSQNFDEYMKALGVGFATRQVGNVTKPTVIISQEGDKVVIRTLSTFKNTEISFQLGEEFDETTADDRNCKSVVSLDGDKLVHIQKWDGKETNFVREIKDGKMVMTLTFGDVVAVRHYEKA
# Sequence of FABP4 (P15090 whole entry, species assumed): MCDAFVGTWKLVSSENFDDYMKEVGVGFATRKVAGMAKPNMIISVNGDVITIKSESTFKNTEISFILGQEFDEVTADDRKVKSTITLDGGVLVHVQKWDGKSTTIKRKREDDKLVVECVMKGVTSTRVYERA
compound,measurement,setting,value
"O=C(O)[C@H]1[C@H](c2ccccc2)[C@H](C(=O)Nc2cccc3ccccc23)[C@H]1c1ccccc1 (stereo in doubt) [Compound 53, 3-(naphthalen-1-ylcarbamoyl)-2,4-diphenylcyclobutanecarboxylic Acid]",FABP inhibition activity,FABP5 [1],analogous FABP inhibition activity to Compound 26
"O=C(O)[C@H]1[C@H](c2ccccc2)[C@H](C(=O)Oc2ccc3ccccc3c2)[C@H]1c1ccccc1 (stereo in doubt) [Compound 54, 3-((naphthalen-2-yloxy)carbonyl)-2,4-diphenylcyclobutanecarboxylic Acid]",FABP inhibition activity,FABP5 [1],analogous FABP inhibition activity to Compound 26
same,"carrageenan-induced paw edema, 24 hrs after inhibitor administration",male C57Bl6 mice [2],reduced
same,"carrageenan-induced thermal hyperalgesia, 24 hrs after inhibitor administration",male C57Bl6 mice [2],reduced
same,first phase of formalin-induced nociception,male C57Bl6 mice [3]; FIG. 16B,reduce
same,second phase of formalin-induced nociception,male C57Bl6 mice [3]; FIG. 16B,reduce
COc1cc([C@H]2[C@H](C(=O)O[C@@H]3C[C@@H]4[C@@H](CN(C)C[C@@H]4C)[C@@H]3C)[C@H](c3ccc(O)c(OC)c3)[C@H]2C(=O)O[C@@H]2C[C@@H]3[C@@H](CN(C)C[C@@H]3C)[C@@H]2C)ccc1O [(−)-incarvillateine],antinociceptive properties,[4],antinociceptive properties on the same level as morphine
O=C(O)[C@@H](O)c1cccc(OCc2ccccc2Cl)c1OCc1ccccc1Cl [BMS480404],Ki,FABP4,2.5 nM
"O=C(O)C1C(c2ccccc2)C(C(=O)Oc2cccc3ccccc23)C1c1ccccc1 (stereo not shown) [Compound 49, γ-2,4-diphenyl-cyclobutane-1,3-dicarboxylic Acid mono-(1-napthyl) Ester]",results in formalin induced mice models,"male C57Bl6 mice [3]; mouse, in vivo",excellent results
"CCCCCCC(CCCCCCCCCCC(=O)O)N(C)c1ccc([N+](=O)[O-])c2nonc12 (stereo not shown) [NBD-stearate, 12-N-methyl-(7-nitrobenz-2-oxa-1,3-diazo) aminostearic acid]",Kd,"FABP5 [5]; one site binding analysis, determined previously (Kaczocha 2012), read-out: Kd of NBD-stearate for FABP5",160 nM
CCCCC/C=C\C/C=C\C/C=C\C/C=C\CCCC(=O)O [arachidonic acid],Ki,"FABP5 [5]; published value, read-out: Ki against FABP5, published / previously determined",130 nM
CCCCCCCC/C=C\CCCCCCCC(=O)O [oleic acid],Ki,FABP7,350 nM
"O=C(O)C1C(c2ccccc2)C(C(=O)O)C1c1ccccc1 (stereo not drawn) [α-truxillic acid, α-2,4-diphenyl-cyclobutane-1,3-dicarboxylic Acid]","antinociception in early and late stage pain, formalin induced mouse models",male C57Bl6 mice [6],best antinociceptive agent in both early and late stage pain
